According to EPA's ToxRefDB 2:

Legend:
[1] = test system: rat; settings: Prenatal developmental toxicity study, sprague dawley, Oral, Gavage/Intubation, dose end: 16 GD, group: maternal
[2] = test system: rat; settings: Subchronic oral toxicity in rodents, wistar, Gavage/Intubation, dose end: 90 day, group: systemic
[3] = test system: rat; settings: Subchronic oral toxicity in rodents, wistar, Gavage/Intubation, dose end: 90 day, group: systemic; remark: listed apart in the source
[4] = test system: rat; settings: Subchronic dermal toxicity, sprague dawley, Topical, dose end: 14 week, group: systemic
[5] = test system: rabbit; settings: Prenatal developmental toxicity study, new zealand white, Oral, Gavage/Intubation, dose end: 18 GD
[6] = test system: mouse; settings: Carcinogenicity, b6c3f1, Oral, Feed, dose end: 24 month, group: systemic
[7] = test system: mouse; settings: Carcinogenicity, b6c3f1, Oral, Feed, dose end: 24 month, group: systemic; remark: listed apart in the source
[8] = test system: dog; settings: Chronic toxicity; beagle; Oral; Feed; dose end: 53 week; group: systemic; systemic / clinical chemistry / alkaline phosphatase (alp/alk) / alkaline phosphatase (alp/alk) + systemic / clinical chemistry / …
[9] = test system: rat; settings: Prenatal developmental toxicity study, sprague dawley, Oral, Gavage/Intubation, dose end: 15 GD
[10] = test system: rat; settings: Combined chronic toxicity/carcinogenicity, fischer, Oral, Feed, dose end: 24 month, group: systemic
[11] = test system: mouse; settings: Subchronic oral toxicity in rodents, b6c3f1, Feed, dose end: 96 day, group: systemic, systemic / organ weight / liver / absolute + systemic / organ weight / liver / relative to body weight + systemic / organ weight / liver / …
[12] = test system: rat; settings: Multigenerational reproductive toxicity study, fischer, Oral, Feed, dose end: 2 generation
[13] = test system: rat; settings: Combined chronic toxicity/carcinogenicity, sprague dawley, Oral, Feed, dose end: 104 week, group: systemic
[14] = test system: dog; settings: Subchronic oral toxicity in nonrodent, beagle, Capsule, dose end: 13 week, group: systemic
[15] = test system: dog; settings: Chronic toxicity; beagle; Oral; Capsule; dose end: 1 year; group: systemic; systemic / in life observation / body weight / body weight gain + systemic / in life observation / clinical signs / emesis + systemic / in …
[16] = test system: rat; settings: Prenatal developmental toxicity study, sprague dawley, Oral, Gavage/Intubation, dose end: 15 GD; remark: listed apart in the source
[17] = test system: mouse; settings: Carcinogenicity, cd1, Oral, Feed, dose end: 78 week, group: systemic
[18] = test system: rat; settings: Multigenerational reproductive toxicity study, sprague dawley, Oral, Feed, dose end: 2 generation
[19] = test system: rat; settings: Subchronic oral toxicity in rodents, other, Feed, dose end: 13 week
[20] = test system: rabbit; settings: Prenatal developmental toxicity study, himalayan, Dermal, Topical, dose end: 19 GD
[21] = test system: mouse; settings: Subchronic oral toxicity in rodents, cd1, Feed, dose end: 13 week, group: systemic
[22] = test system: dog; settings: Chronic toxicity; beagle; Oral; Capsule; dose end: 1 year; group: systemic; systemic / in life observation / body weight / body weight gain + systemic / in life observation / clinical signs / emesis + systemic / in …; remark: listed apart in the source
[23] = systemic / in life observation / clinical signs / salivation + systemic / in life observation / food consumption / food consumption
[24] = systemic / pathology microscopic / pharynx / lesion(s) (nos)
[25] = systemic / in life observation / clinical signs / righting ability
[26] = systemic / in life observation / clinical signs / righting ability + systemic / in life observation / body weight / body weight + systemic…
[27] = systemic / pathology microscopic / bone marrow / hyperplasia
[28] = systemic / pathology microscopic / bone marrow / hyperplasia + systemic / hematology / mean corpuscular (cell) volume (mcv) / mean …
[29] = group: developmental, developmental / developmental malformation / bone / misshapen
[30] = group: maternal, systemic / in life observation / body weight / body weight gain + systemic / organ weight / liver / absolute + systemic / organ weight / …
[31] = systemic / pathology gross / intestine small / discolored + systemic / pathology microscopic / intestine small / [other] + systemic / …
[32] = systemic / pathology microscopic / intestine small / hyperplasia + systemic / pathology microscopic / intestine small / hypertrophy + …
[33] = group: developmental, developmental / developmental malformation / bone / incomplete ossification + developmental / developmental malformation / bone / short …
[34] = group: maternal, systemic / in life observation / body weight / body weight + systemic / in life observation / body weight / body weight gain + systemic / in…
[35] = systemic / in life observation / body weight / body weight gain
[36] = systemic / in life observation / body weight / body weight gain + systemic / pathology microscopic / kidney / adenocarcinoma + systemic / …
[37] = group: offspring, systemic / in life observation / body weight / offspring (pup) weight + systemic / pathology microscopic / liver / vacuolization
[38] = group: parental, systemic / organ weight / liver / absolute + systemic / organ weight / liver / relative to body weight
[39] = systemic / clinical chemistry / alanine aminotransferase (alt/sgpt) / alanine aminotransferase (alt/sgpt) + systemic / in life observation…
[40] = systemic / in life observation / body weight / body weight gain + systemic / in life observation / clinical signs / emesis + systemic / in …
[41] = systemic / in life observation / clinical signs / soft stools + systemic / in life observation / food consumption / food consumption
[42] = group: developmental, developmental / developmental malformation / bone / incomplete ossification + systemic / in life observation / body weight / fetal weight
[43] = group: maternal, systemic / in life observation / body weight / body weight gain + systemic / in life observation / food consumption / food consumption
[44] = group: maternal, systemic / in life observation / body weight / body weight gain + systemic / in life observation / food consumption / food consumption + …
[45] = systemic / in life observation / body weight / body weight gain + systemic / in life observation / food consumption / food efficiency + …
[46] = systemic / organ weight / brain / relative to body weight
[47] = group: offspring, systemic / in life observation / body weight / offspring (pup) weight
[48] = group: parental, systemic / in life observation / body weight / body weight + systemic / in life observation / body weight / body weight gain + systemic / in…
[49] = group: cholinesterase, cholinesterase / cholinesterase / cholinesterase / cholinesterase (che)
[50] = group: systemic, systemic / clinical chemistry / urea nitrogen / urea nitrogen
[51] = group: developmental, developmental / developmental malformation / bone / incomplete ossification
[52] = group: maternal, systemic / in life observation / clinical signs / erythema + systemic / in life observation / clinical signs / scabbing + systemic / …
[53] = systemic / clinical chemistry / glucose / glucose

With `CCCCCCCCCCCCN(CCCN)CCCN` [1,3-Propanediamine, N-(3-aminopropyl)-N-dodecyl-] the LEL ([1]; systemic / in life observation / clinical signs / salivation) was 50 mg/kg/day, the LOAEL [1, 23] was > 200 mg/kg/day and the NEL [1, 23] was 25 mg/kg/day. For the same compound, the NOAEL [1, 23] was ≥ 200 mg/kg/day, the LOAEL ([2]; systemic / pathology microscopic / kidney / basophilia + systemic / pathology microscopic / kidney / dilatation) was 90 mg/kg/day and the LEL [2, 24] was 5 mg/kg/day. The NEL [2, 24] was < 5 mg/kg/day, the LEL [3, 25] was 10 mg/kg/day and the LOAEL [3, 25] was 10 mg/kg/day. The NEL [3, 26] was 5 mg/kg/day, the NOAEL [3, 26] was 5 mg/kg/day and the LOAEL [4, 27] was 5 mg/kg/day. The NOAEL [4, 27] was < 5 mg/kg/day, the LEL [4, 28] was 5 mg/kg/day and the NEL [4, 28] was < 5 mg/kg/day.

`Clc1cccc(C(Cl)(Cl)Cl)n1` [Nitrapyrin] showed an LEL [5, 29] of 30 mg/kg/day, an LOAEL [5, 29] of 30 mg/kg/day and an NEL [5, 29] of 10 mg/kg/day. For the same compound, the NOAEL [5, 29] was 10 mg/kg/day, the LEL [5, 30] was 30 mg/kg/day and the LOAEL [5, 30] was 30 mg/kg/day. For the same compound, the NEL [5, 30] was 10 mg/kg/day, the NOAEL [5, 30] was 10 mg/kg/day and the LOAEL [6, 31] was 75 mg/kg/day. It also gave an NEL [6, 31] of 5 mg/kg/day, an NOAEL [6, 31] of 25 mg/kg/day and an LEL ([6]; systemic / pathology microscopic / intestine small / [other] + systemic / pathology gross / intestine small / discolored + systemic / …) of 25 mg/kg/day. The LOAEL [7, 32] was 125 mg/kg/day, the NOAEL [7, 32] was < 125 mg/kg/day and the NEL ([7]; systemic / pathology microscopic / liver / hypertrophy + systemic / pathology microscopic / stomach / hyperkeratosis + systemic / pathology …) was 250 mg/kg/day. For the same compound, the LEL [8] was 15 mg/kg/day, the LOAEL [8] was 15 mg/kg/day and the NEL [8] was 3 mg/kg/day. It also gave an NOAEL [8] of 3 mg/kg/day, an LEL [9, 33] of 120 mg/kg/day and an LOAEL [9, 33] of 120 mg/kg/day. The NEL [9, 33] was 50 mg/kg/day, the NOAEL [9, 33] was 50 mg/kg/day and the LOAEL [9, 34] was 120 mg/kg/day. It also gave an NEL [9, 34] of 15 mg/kg/day, an NOAEL [9, 34] of 50 mg/kg/day and an LEL ([9]; group: maternal, systemic / in life observation / body weight / body weight gain) of 50 mg/kg/day. It also gave an LOAEL [10, 35] of 20 mg/kg/day, an LEL ([10]; systemic / in life observation / body weight / body weight gain + systemic / in life observation / body weight / body weight) of 20 mg/kg/day and an NEL [10, 36] of 5 mg/kg/day. For the same compound, the NOAEL [10, 36] was 5 mg/kg/day, the LEL [11] was 200 mg/kg/day and the LOAEL [11] was 200 mg/kg/day. The NEL [11] was < 200 mg/kg/day, the NOAEL [11] was < 200 mg/kg/day and the LOAEL [12, 37] was 75 mg/kg/day. The NEL [12, 37] was 20 mg/kg/day, the NOAEL [12, 37] was 20 mg/kg/day and the LEL ([12]; group: offspring, systemic / in life observation / body weight / offspring (pup) weight + systemic / pathology microscopic / liver / vacuolization + systemic…) was 75 mg/kg/day. It also gave an NOAEL ([12]; group: parental, systemic / organ weight / kidney / absolute + systemic / organ weight / kidney / relative to body weight + systemic / in life observation / …) of 5 mg/kg/day, an LOAEL ([12]; group: parental, systemic / organ weight / kidney / absolute + systemic / organ weight / kidney / relative to body weight + systemic / organ weight / liver…) of 20 mg/kg/day and an LEL [12, 38] of 5 mg/kg/day. For the same compound, the NEL [12, 38] was < 5 mg/kg/day.

Compound `CC(C)(C)c1ccc(CSc2cnn(C(C)(C)C)c(=O)c2Cl)cc1` [Pyridaben] has an LOAEL [13, 39] of 5 mg/kg/day, an NEL [13, 39] of 0.4 mg/kg/day and an LEL ([13]; systemic / urinalysis / volume / volume) of 1.13 mg/kg/day. For the same compound, the LOAEL [14, 40] was 4 mg/kg/day, the NOAEL [14, 40] was 1 mg/kg/day and the LEL [14, 41] was 0.5 mg/kg/day. The NEL [14, 41] was < 0.5 mg/kg/day, the LEL [15] was 1 mg/kg/day and the LOAEL [15] was 1 mg/kg/day. For the same compound, the NEL [15] was < 1 mg/kg/day, the NOAEL [15] was < 1 mg/kg/day and the LEL [16, 42] was 30 mg/kg/day. The LOAEL [16, 42] was 30 mg/kg/day, the NEL [16, 42] was 13 mg/kg/day and the NOAEL [16, 42] was 13 mg/kg/day. It also gave an LEL [16, 43] of 13 mg/kg/day, an LOAEL [16, 43] of 13 mg/kg/day and an NEL [16, 44] of 5.7 mg/kg/day. It also gave an NOAEL [16, 44] of 5.7 mg/kg/day, an LOAEL [17, 45] of 8.88 mg/kg/day and an NOAEL [17, 45] of 2.78 mg/kg/day. For the same compound, the LEL [17, 46] was 0.26 mg/kg/day, the NEL [17, 46] was < 0.26 mg/kg/day and the LEL [18, 47] was 6.31 mg/kg/day. The LOAEL [18, 47] was > 6.31 mg/kg/day, the NEL [18, 47] was 2.2 mg/kg/day and the NOAEL [18, 47] was ≥ 6.31 mg/kg/day. For the same compound, the LOAEL [18, 48] was 6.31 mg/kg/day, the NOAEL [18, 48] was 2.2 mg/kg/day and the LEL ([18]; group: parental, systemic / organ weight / ovary / absolute) was 2.41 mg/kg/day. For the same compound, the NEL ([18]; group: parental, systemic / organ weight / ovary / absolute + systemic / in life observation / body weight / body weight + systemic / in life observation / …) was 0.94 mg/kg/day, the LEL [19, 49] was 27.7 mg/kg/day and the LOAEL [19, 49] was > 27.7 mg/kg/day. For the same compound, the NEL [19, 49] was 12.8 mg/kg/day, the NOAEL [19, 49] was ≥ 27.7 mg/kg/day and the LEL [19, 50] was 2.3 mg/kg/day. The NEL [19, 50] was < 2.3 mg/kg/day, the LOAEL ([19]; group: systemic, systemic / in life observation / body weight / body weight gain + systemic / in life observation / food consumption / food efficiency) was 5.53 mg/kg/day and the NOAEL ([19]; group: systemic, systemic / in life observation / body weight / body weight gain + systemic / in life observation / food consumption / food efficiency + …) was 2.64 mg/kg/day. For the same compound, the LEL [20, 51] was 450 mg/kg/day, the LOAEL [20, 51] was 450 mg/kg/day and the NEL [20, 51] was 170 mg/kg/day. For the same compound, the NOAEL [20, 51] was 170 mg/kg/day, the LEL [20, 52] was 70 mg/kg/day and the LOAEL [20, 52] was 70 mg/kg/day. For the same compound, the NEL [20, 52] was < 70 mg/kg/day, the NOAEL [20, 52] was < 70 mg/kg/day and the LEL [21, 53] was 4.07 mg/kg/day. The NEL [21, 53] was < 4.07 mg/kg/day, the LOAEL [21, 35] was 13 mg/kg/day and the NOAEL ([21]; systemic / in life observation / body weight / body weight gain + systemic / clinical chemistry / alkaline phosphatase (alp/alk) / alkaline …) was 4.07 mg/kg/day. For the same compound, the LEL [22] was 0.5 mg/kg/day, the LOAEL [22] was 0.5 mg/kg/day and the NEL [22] was < 0.5 mg/kg/day. For the same compound, the NOAEL [22] was < 0.5 mg/kg/day.
